Type in all cases: cell-based
The test system of assay [1] is Klebsiella pneumoniae HKY402 (SHV-12: Class A). The assay can be described thus: MIC by trace quantity liquid dilution method.
The subject of assay [2] is Klebsiella pneumoniae KP1 15 (IMP-1: Class B). The assay is described as follows: MIC by trace quantity liquid dilution method.
A further assay relates to C. freundii HKY543. The assay can be described thus: MIC by trace quantity liquid dilution method. The conditions noted are these: Citrobacter freundii. As to the method: (§1) Following overnight culturing, the MIC was measured.
Assay [3] deals with E. cloacae HKY226. The assay can be described thus: MIC by trace quantity liquid dilution method. The following applies: Enterobacter cloacae. As to the method:
as §1

In the next assay the test system is E. coli NS12 CMY-2. The assay can be described thus: MIC by trace quantity liquid dilution method. The conditions noted are these: Escherichia coli, NS12CMY2. How it is done:
as §1

Assay [4] deals with K. pneumoniae NCB02189 DHA-1 + CTX-M9. The assay is described as follows: MIC by trace quantity liquid dilution method. The conditions noted are these: Klebsiella pneumoniae. As to the method:
as §1

In assay [5] the test system is Klebsiella pneumoniae NU2936 (MOX-1: Class C). The assay is described as follows: MIC by trace quantity liquid dilution method. How it is done:
as §1

In a further assay the test system is P. aeruginosa NCB03-192. The assay is described as follows: MIC by trace quantity liquid dilution method. The conditions noted are these: Pseudomonas aeruginosa, NCB03192. How it is done: as §1
In a further assay the test system is S. marcescens S94. The assay can be described thus: MIC by trace quantity liquid dilution method. The following applies: Serratia marcescens. How it is done:
as §1

Assay [6] deals with E. cloacae HKY226. The assay is described as follows: Disk test, CAZ disk versus CAZ + APB disk (second aspect). The following applies: overnight culturing.
Experimental: (§2) In the same manner as in Embodiment 1, the test bacterium was inoculated onto a Mueller-Hinton agar medium, and KB disks (6 mm in diameter) of CAZ were positioned at least 3 cm apart center-on-center. […] After overnight culturing, the diameters of the growth inhibitory zones around the two CAZ disks were measured.
A further assay deals with C. freundi HKY543. The description is as above. The following applies: overnight culturing.
Assay [7] deals with K. pneumoniae SHV-12 Class A. Described as above. The conditions noted are these: overnight culturing.
Experimental: as §2

Structures are written as SMILES. Converted amounts (≈) assume the structure as drawn. A value given as a limit tells only on which side of the number the result lay.

Experimental for C. freundi HKY543: as §2

As to `CC(C)(O/N=C(\C(=O)N[C@@H]1C(=O)N2C(C(=O)[O-])=C(C[n+]3ccccc3)CS[C@H]12)c1csc(N)n1)C(=O)O` [CAZ, ceftazidime], the MIC in [1] is over 512 µg/mL; in [2], 256 µg/mL (≈ 468 µM); against C. freundii HKY543, 64 µg/mL (≈ 117 µM); with E. cloacae HKY226 [3] it was 256 µg/mL (≈ 468 µM); in the assay on E. coli NS12 CMY-2, 64 µg/mL (≈ 117 µM); in assay [4] it was 64 µg/mL (≈ 117 µM). Also, the values for the MIC (in assay [5]; in the assay on P. aeruginosa NCB03-192; against S. marcescens S94) were 64 µg/mL (≈ 117 µM), 16 µg/mL (≈ 29.3 µM) and 64 µg/mL (≈ 117 µM), respectively. The “Inhibitory zone around the disk” value is recorded as “No inhibitory zone was observed around” in the assay with E. cloacae HKY226 [6], “A small inhibitory zone was observed” in the assay with C. freundi HKY543 and “No inhibitory zones observed around” in [7].

For the origin of these results see patent US20070254332A1, “Method for Readily Detecting Class C Beta-Lactamase-Producing Bacteria” (JAPAN HEALTH SCIENCES FOUNDATION, priority 2003, published 2007).
